According to PubChem BioAssay (NCI):
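Exposure lasted 48 hours, with cells grown in 96-well plates and compounds tested at five concentrations. Definition used: TGI = concentration required for complete inhibition of growth.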

Legend:
Assay in all cases: NCI-60 cell line screen, 48 h
[1] = system: A498 renal
[2] = system: COLO 205 colon
[3] = system: HOP-92 NSCLC
[4] = system: K-562 leukemia
[5] = system: M14 melanoma
[6] = system: OVCAR-4 ovarian
[7] = system: SF-539 CNS
[8] = system: SK-MEL-28 melanoma
[9] = system: SNB-75 CNS
[10] = system: SW-620 colon
[11] = system: UACC-257 melanoma

Structure (SMILES) | TGI [1] [µM] | TGI [2] [µM] | TGI [3] [µM] | TGI [4] [µM] | TGI [5] [µM] | TGI [6] [µM] | TGI [7] [µM] | TGI [8] [µM] | TGI [9] [µM] | TGI [10] [µM] | TGI [11] [µM]
COc1ccc2cc3c4cc5c(cc4cc[n+]3cc2c1OC)OCO5 | > 100 | 6.73 | > 90.4 | > 100 | 68 | > 100 | > 58.5 | 19.4 | 67 | > 62.2 | 30.4
C=CC[C@]12C[C@@H](C(=O)OC)N(C(=O)OC)[C@H]1N(S(=O)(=O)c1ccccc1)c1ccccc12 | > 100 |  | > 100 | > 100 |  | > 100 | > 100 | > 100 | > 100 | > 100 | 77.3
CC(=O)N/N=C1\NC(=O)C[C@H]2[C@@H]3CC=C4C[C@@H](OC(C)=O)CC[C@]4(C)[C@H]3CC[C@]12C | 35.2 | > 100 | 31.9 | > 100 | > 100 | 25.7 | 25.9 | 33 | 46.9 | > 100 | > 100
O=C(NC(Cc1ccc(I)cc1)C(=O)O)c1ccc(I)cc1 (configuration not stated) | > 100 | > 100 | > 100 | > 100 |  | > 100 | > 100 | > 100 | > 100 | > 37.3 | > 100
CC(C)/C(Cl)=N\OC(=O)Nc1ccc(C#N)cc1 | 27.7 | 3.24 | 2.98 | 4.82 | 7.85 | 3.24 | 29.4 | 25 | 31.6 | 3.36 | 25.3
CSc1c(C#N)c(N)n2c1C(=O)N(c1ccccc1)C2=S | 94.3 | 78.3 | > 100 | > 100 | > 100 | 69.7 | > 100 | > 100 | > 100 | > 100 | > 100
CC1(C)N=C(C(N)=O)c2ncn(CCCO)c2N1 | > 100 | > 100 | > 100 | > 100 | > 100 | > 100 | > 100 | > 100 | > 100 | > 100 | > 100
CCOC(=O)/C=C(\C)c1ccc(C)cc1C | > 100 | > 100 | 63.8 | > 100 | > 100 | > 100 | > 100 | 51.8 | > 100 | 37.8 | > 100
O=c1c2ccccc2nc2[nH][nH]c(=S)n12 | > 100 | > 100 | > 100 | > 100 | > 100 |  | > 100 | > 100 | > 100 | > 100 | > 100
Nc1c(-c2cccc3ccccc23)c2ccc([N+](=O)[O-])cc2c(=O)n1-c1nc2ccccc2s1 | > 100 | > 100 | > 55.5 | > 100 | > 38.9 | > 53.5 | 14.8 | > 100 | 9.65 | > 100 | > 80.8
CCCn1c(CN(Cc2nc3ccccc3n2CCC)Cc2nc3ccccc3n2CCC)nc2ccccc21 | > 64.1 | 13 | 13.3 | 32.1 | 42 | 26.1 | > 50.9 | 38.1 | 75.1 | > 100 | > 42.5
CCCCC1c2c([nH]c3ccccc23)C2C(=O)N(c3ccc(OC)cc3)C(=O)C2C1CCC (configuration not stated) | 6.71 | 6.34 | 7.86 | 7.43 | 8.53 | > 10 | 5.11 | > 10 | 6.5 | > 10 | 9.62
Cc1cc(=O)c2c([nH]1)NS(=O)(=O)NC2=O | > 100 | > 100 | > 100 | > 100 | > 100 | > 100 | > 100 | > 100 | > 100 | > 100 | > 100
Cc1csc(-c2cn(C)c3c2C(=O)C(N)=CC3=O)n1 | > 100 | > 100 | > 100 | > 100 | > 47.4 | > 100 | > 100 | > 100 | 6.48 | > 100 | 32.6
O=C1C=CC(=O)N1Nc1ccc([N+](=O)[O-])cc1[N+](=O)[O-] | > 100 | > 60.7 | > 77 | > 66.2 | 40 | > 79.9 | > 100 | > 59.2 | > 100 | > 100 | > 100
O=c1ccc2cc3ccc4cccc5ccc(c2o1)c3c45 | 44.9 | > 100 | > 100 | > 100 | > 100 |  | 21.9 | > 100 | 50 | > 100 | 
CN(C)c1nc(=NCc2ccccc2)ss1 | > 10 | > 10 | > 10 | > 10 | > 10 | > 10 | > 10 | > 10 | > 10 | > 10 | > 10
BrC/C=C/C[P+](c1ccccc1)(c1ccccc1)c1ccccc1 |  | 16.1 | 36.1 | > 100 | 82.4 | > 100 | 22.4 | > 100 | 78.3 | > 100 | > 100
COc1ccc2nc3cc(Cl)ccc3c(NCCCNCCCNc3c4ccc(Cl)cc4nc4ccc(OC)cc34)c2c1 | 0.463 | 0.158 | 0.347 | 15.2 | 0.157 |  | 0.192 |  | 0.23 |  | 1.76
CCOC(=N)n1c(=O)n(C2=NCCN2)c2ccccc21 | > 100 | > 100 | > 100 | > 100 | > 100 | > 100 | > 100 | > 100 | > 100 | > 100 | > 100
CCOc1cc(C2CC(c3ccc(NS(=O)(=O)c4cc([N+](=O)[O-])ccc4C)cc3)=NN2C(=O)c2ccccc2)ccc1O (configuration not stated) | 44.3 | 31.4 | 47.6 | > 100 | 76.1 | > 100 | 52.8 | > 100 | 36.6 | > 100 | 91.5

Structure (SMILES) | TGI [1] [µM] | TGI [2] [µM] | TGI [3] [µM] | TGI [4] [µM] | TGI [5] [µM] | TGI [6] [µM] | TGI [7] [µM] | TGI [8] [µM] | TGI [9] [µM] | TGI [10] [µM] | TGI [11] [µM]
CC(C)COP(=O)(OCC(C)C)C(NS(=O)(=O)c1ccccc1)(C(F)(F)F)C(F)(F)F |  | 3.94 | 7.64 | > 100 | 43.2 | 13.5 | 29.1 | 37.1 | 12.6 | 41.6 | 17.5
C/C(CC1C2CCCC1C2)=N\NC(N)=O (configuration not stated) |  | > 100 | > 100 |  | > 100 | > 100 | > 100 | > 100 | > 100 | > 100 | > 100
O=c1c2cc3c(cc2[nH]c2ncccc12)OCO3 | > 10 | > 10 | > 10 | > 10 | > 10 | > 10 | > 10 | > 10 | > 10 | > 10 | > 10
COC(=O)[C@]12CC[C@H]3CN(C(=O)OCc4ccccc4)[C@H]([C@H]31)[C@H](c1ccco1)N2S(=O)(=O)c1ccc(C)cc1 | 79.7 | 38.4 | 56.1 | > 100 | 44.6 | > 100 | > 100 | > 100 |  | > 100 | 50.9
CN(C)C(=S)S | > 100 | > 100 | > 100 | > 100 | > 100 | > 100 | > 100 | > 100 | > 100 | > 100 | > 100
C=C[C@@H]1C(CO)=CCC2[C@H]1CCC1C(C)(C)C(=O)CC[C@]21C (some centres not stated) | > 100 | > 100 | > 100 | > 100 | > 100 | > 100 | > 100 | > 100 |  | > 100 | > 100
O=C(NCCN1CCOCC1)c1ccc2cc(C(=O)N3CC(CCl)c4ccc([N+](=O)[O-])cc43)[nH]c2c1 (configuration not stated) | 20 | > 100 | 38.4 | > 100 | > 100 | 32.6 | > 100 | > 100 |  | > 100 | 86.8
CCN(C(=S)N[C@@H](Cc1ccccc1)C(=O)N[C@@H](CC(C)C)C(=O)OC)c1ccccc1 |  | > 100 | > 100 | > 100 | > 100 | > 100 | > 100 | > 100 | > 100 | > 100 | > 100
NNC(=O)c1ccc[n+](CCc2ccccc2)c1 | > 100 | > 100 | > 100 | > 100 | > 100 | > 100 |  | > 100 | > 100 | > 100 | > 100
c1ccc2sc(SCSc3nc4ccccc4s3)nc2c1 | > 100 |  | > 100 | > 100 | > 100 | > 100 |  | > 100 | > 100 | > 100 | > 100
CCOC(=O)NC(=S)NN(C)C1=NCC(C)(C)S1 | > 100 | > 100 | > 100 | > 100 |  |  | > 100 | > 100 | > 100 | > 100 | > 100
COc1cc(NS(C)(=O)=O)ccc1N1Cc2cnc3ccc4[nH]c(C)cc1c4c23 | > 100 | > 100 | > 100 | > 100 | > 100 | > 100 |  | > 100 | 46.5 | > 100 | > 100
C1=CC2=CC=CC3c4nc5ccc6ccccc6c5nc4C(=C1)C23 (configuration not stated) |  | > 100 | > 100 | > 100 | > 100 | > 100 | > 100 | > 100 | > 100 | > 100 | > 100
CCCNC(=O)CCC(C)[C@H]1CCC2C3C(C[C@H](OC(C)=O)[C@@]21C)[C@@]1(C)CCC2(C[C@H]1C[C@H]3OC(C)=O)OOC1(CCC(C)CC1)OO2 (some centres not stated) | 74.5 | 29.9 | 1.98 | > 100 | > 100 | 33.9 | 33.8 | > 100 | 53.5 |  | 90.9
O=P(c1ccccc1)(c1ccccc1)N1O[C@@H](c2ccccc2)C=C[C@H]1c1ccccc1 |  | 31.2 | 25.6 | 80.1 | 23.9 | 10.6 | 33 | 38.3 | 26.5 | 31.8 | 26.3
O=S(=O)(O)c1cc2ccc1/C=C\c1ccc(cc1S(=O)(=O)O)N=Nc1ccc(c(S(=O)(=O)O)c1)/C=C\c1ccc(cc1S(=O)(=O)O)N=N2 | > 100 | > 100 | > 100 | > 100 |  | > 100 | > 100 | > 100 | > 100 | > 100 | > 100
C/C=C/C=C/c1nc(C#N)c(N)o1 |  | > 100 | > 100 | > 100 | > 100 | > 100 | > 100 | > 100 | > 100 | > 100 | > 100
O=C(N=Nc1cc(Cl)ccc1Cl)NNc1cc(Cl)ccc1Cl | 82.3 | 41.1 | 32.9 | 54.6 | 32.5 |  |  | 61.2 | 57.5 |  | 
O=c1cc(N=P(c2ccccc2)(c2ccccc2)c2ccccc2)n(-c2ccccc2)c(=O)n1-c1ccccc1 | 21.1 |  | 47.5 | 23.9 | > 100 | 45.9 | 17.7 | > 100 | 39.9 | > 100 | > 100
N#CCCN(CCC#N)c1ccc(/C=C2\N=C(c3ccccc3)N(c3ccc(Cl)cc3)C2=O)cc1 | > 100 | > 100 | > 100 | > 100 | > 100 | > 100 | > 100 | > 100 |  | > 100 | > 100
